Data reported in patent US20040109845A1, “Method for inhibiting articular cartilage matrix calcification” (priority 2001, published 2004).

Test system: alkaline phosphatase (AP)
Assay: AP activity of cultured meniscal cells
Format: cell-based, human
Details: 48 h, 10 ng/ml
Description: Meniscal cells (from the same donors used in FIG. 3 above) were released from the matrix with collagenase digestion, and grown in monolayer culture for 72 hrs, then trypsinized and plated in 35 mm dishes (containing 3×10^5 cells) and allowed to adhere overnight. Cells were then treated for 48 h with 10 ng/ml of TGFβ or IL-1β (10 ng/ml) in 1% FCS-containing DMEM high glucose medium. The cells were collected and lysed for the TGase (FIG. 5A), NTPPPH (FIG. 5B), and AP (FIG. 5C) assays as described in the Methods. Five micrograms of soluble protein was studied in triplicate for each assay performed as previously described. Results were analyzed by linear regression, with results indicated.
PPi was determined by differential adsorption on activated charcoal of UDP-D-[6-^3H] glucose (Amersham, Chicago, Ill.) from the reaction product 6-phospho [6-^3H] gluconate (28). Units of NTPPPH and AP were designated as micromoles of substrate hydrolyzed per hour (per μg DNA in each sample) (28). NO release by cultured meniscal cells was measured using the Greiss reaction (33). Concentrations or specific activities of PPi, NTPPPH, and AP were equalized for cellular DNA concentrations in each well.

## IL-1β: Human recombinant IL-1β purchased from R&D Systems
  AP activity: did not significantly change
